In ChEMBL document CHEMBL3259730, “Synthesis and biological evaluation of 2,3-diaryl isoquinolinone derivatives as anti-breast cancer agents targeting ERα and VEGFR-2” (Bioorg Med Chem Lett, 2014):

Experiments:
[1] = test system: MCF7; assay: Antiproliferative activity against human MCF7 cells after 48 hrs by MTT assay; assay type: functional, cell-based; conditions: MCF7, 48 h
[2] = target: Vascular endothelial growth factor receptor 2 (Homo sapiens) (UniProt P35968); conditions: at 0.1 mg/mL;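 note: VEGFR-2 inhibition read out by HTRF after 1 h, with the receptor's origin stated as unknown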
Description: Inhibition of VEGFR-2 (unknown origin) at 0.1 mg/ml after 1 hr by HTRF assay

[3] = test system: Chorioallantoic membrane; assay: Antiangiogenic activity in Chicken chorioallantoic membrane after 72 hrs relative to control; assay type: functional, cell membranes; conditions: Gallus gallus

Chain of Vascular endothelial growth factor receptor 2 (Homo sapiens) (P35968 whole entry): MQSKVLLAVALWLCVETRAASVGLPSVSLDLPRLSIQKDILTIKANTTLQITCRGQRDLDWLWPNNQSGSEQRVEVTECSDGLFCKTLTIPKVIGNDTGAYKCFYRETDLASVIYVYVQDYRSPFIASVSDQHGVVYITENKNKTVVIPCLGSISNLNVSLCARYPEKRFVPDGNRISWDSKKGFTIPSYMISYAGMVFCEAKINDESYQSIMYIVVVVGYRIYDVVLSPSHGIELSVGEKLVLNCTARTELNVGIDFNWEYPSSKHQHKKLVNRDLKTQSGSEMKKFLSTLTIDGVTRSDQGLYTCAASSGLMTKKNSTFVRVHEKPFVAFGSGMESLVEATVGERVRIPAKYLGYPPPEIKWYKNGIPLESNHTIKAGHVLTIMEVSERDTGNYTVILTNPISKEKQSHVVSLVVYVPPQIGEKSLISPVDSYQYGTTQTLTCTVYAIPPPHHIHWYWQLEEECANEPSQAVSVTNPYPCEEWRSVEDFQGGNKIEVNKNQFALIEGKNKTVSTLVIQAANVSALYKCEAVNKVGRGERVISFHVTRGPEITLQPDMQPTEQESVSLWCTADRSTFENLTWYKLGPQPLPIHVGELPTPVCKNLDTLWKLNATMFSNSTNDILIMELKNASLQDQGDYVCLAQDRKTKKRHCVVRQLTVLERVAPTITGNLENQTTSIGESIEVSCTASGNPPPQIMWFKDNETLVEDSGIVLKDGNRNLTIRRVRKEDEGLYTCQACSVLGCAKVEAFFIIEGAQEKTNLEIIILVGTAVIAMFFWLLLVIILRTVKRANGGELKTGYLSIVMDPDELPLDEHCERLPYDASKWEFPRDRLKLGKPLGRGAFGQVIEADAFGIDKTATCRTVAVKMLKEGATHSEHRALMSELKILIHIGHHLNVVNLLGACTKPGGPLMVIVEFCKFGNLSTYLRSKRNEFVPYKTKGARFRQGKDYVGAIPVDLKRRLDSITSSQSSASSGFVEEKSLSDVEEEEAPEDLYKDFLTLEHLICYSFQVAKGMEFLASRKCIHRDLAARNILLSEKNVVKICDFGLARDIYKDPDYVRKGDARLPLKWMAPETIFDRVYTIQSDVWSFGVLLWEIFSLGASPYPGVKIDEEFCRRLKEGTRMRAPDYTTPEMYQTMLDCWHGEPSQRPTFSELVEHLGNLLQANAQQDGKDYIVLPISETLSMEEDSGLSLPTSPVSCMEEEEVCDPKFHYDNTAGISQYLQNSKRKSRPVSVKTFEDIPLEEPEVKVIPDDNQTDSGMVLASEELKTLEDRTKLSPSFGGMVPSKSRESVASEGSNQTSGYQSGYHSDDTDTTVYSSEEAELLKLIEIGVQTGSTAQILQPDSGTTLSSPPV

Row | SMILES | IC50 [1] | inhibition [2] | inhibition [3]
1 | CN(C)CCOc1ccc(-n2c(-c3ccc(O)cc3)cc3ccc(O)cc3c2=O)cc1 | 18.9 µM | 79.4% | 
2 | COc1ccc(-c2cc3ccc(OC)cc3c(=O)n2-c2ccc(OCCCN3CCCCC3)cc2)cc1 | > 1000 µM | 72.8% | 
3 | O=c1c2cc(O)ccc2cc(-c2ccc(O)cc2)n1-c1ccc(OCCCN2CCCC2)cc1 | 12.7 µM | 48.3% | 
4 | CN1CCN(CCOc2ccc(-n3c(-c4ccc(O)cc4)cc4ccc(O)cc4c3=O)cc2)CC1 | 9.45 µM | 103% | Dose-dependent effect
5 | CC/C(=C(\c1ccccc1)c1ccc(OCCN(C)C)cc1)c1ccccc1 [TAMOXIFEN] | 1.89 µM |  | 
6 | COc1ccc(-c2cc3ccc(OC)cc3c(=O)n2-c2ccc(OCCN(C)C)cc2)cc1 | > 1000 µM | 66.1% | 
7 | COc1ccc(-c2cc3ccc(OC)cc3c(=O)n2-c2ccc(OCCN3CCOCC3)cc2)cc1 | > 1000 µM | 51.2% | 
8 | COc1ccc(-c2cc3ccc(OC)cc3c(=O)n2-c2ccc(OCCCN3CCCC3)cc2)cc1 | 479 µM | 98.5% | 
9 | O=c1c2cc(O)ccc2cc(-c2ccc(O)cc2)n1-c1ccc(OCCCN2CCCCC2)cc1 | 2.73 µM | 100% | Dose-dependent effect

More lines, in order of falling IC50 [1], values ahead:

Row | IC50 [1] | inhibition [2] | SMILES | inhibition [3]
10 | 863 µM | 83.8% | COc1ccc(-c2cc3ccc(OC)cc3c(=O)n2-c2ccc(OCCN3CCCC3)cc2)cc1 | 
11 | 429 µM | 79.4% | COc1ccc(-c2cc3ccc(OC)cc3c(=O)n2-c2ccc(OCCN3CCN(C)CC3)cc2)cc1 | 
12 | 383 µM | 92.5% | CCN(CC)CCOc1ccc(-n2c(-c3ccc(OC)cc3)cc3ccc(OC)cc3c2=O)cc1 | 
13 | 322 µM | 65.3% | COc1ccc(-c2cc3ccc(OC)cc3c(=O)n2-c2ccc(OCCN3CCCCC3)cc2)cc1 | 
14 | 11.8 µM | 49.9% | O=c1c2cc(O)ccc2cc(-c2ccc(O)cc2)n1-c1ccc(OCCN2CCCC2)cc1 | 
15 | 3.63 µM | 84.8% | O=c1c2cc(O)ccc2cc(-c2ccc(O)cc2)n1-c1ccc(OCCN2CCCCC2)cc1 | 
